Experimental data: patent publication US20230381215A1, “NOVEL COMBINATION TREATMENT FOR ACUTE MYELOID LEUKEMIA (AML)” (Hoffmann-La Roche Inc., priority 2013, published 2023)

Key:
[1] = tested on: MOLM-13.luc.c4 (MOLM-13 human AML cells); experiment: Antitumor efficacy and survival/increase in life span (ILS) in disseminated MOLM-13.luc.c4 AML model; format: in vivo, SCID beige mice; details: for tumor burden by BLI photon counts compared to Vehicle-treated control (FIG. 1) / antitumor activity as assessed by tumor burden (BLI) or ILS: monotherapy; for tumor burden by BLI photon counts compared to Vehicle-treated control (FIG. 1): treatment initiated on day 3
Description: (§1) Female SCID beige mice (10/group), obtained from Charles River Laboratories (Wilmington, DE) were used when they were approximately 8-12 weeks old and weighed approximately 20-25 grams. The health of the mice was assessed daily by gross observation and analyses of blood samples taken from sentinel animals housed on shared shelf racks. All animals were allowed to acclimate and recover from any shipping-related stress for a minimum of 72 hours prior to experimental use. Autoclaved water and irradiated food (5058-ms Pico Lab mouse chow, Purina Mills, Richmond, IN) were provided ad libitum, and the animals were maintained on a 12 hour light and dark cycle. Cages, bedding and water bottles were autoclaved before use and changed weekly. All animal experiments were conducted in accordance with the Guide for the Care and Use of Laboratory Animals, local regulations, and protocols approved by the Roche Animal Care and Use Committee in an AAALAC accredited facility.
Parental MOLM-13 human AML cells were stably transfected with Luc2 lentiviral particles for 24 hrs in the presence of Polybrene (8 ug/ml) and then selected in the presence of Blasticidin for 3 weeks. Subsequently, one clone was selected by single cell plating in the presence of 0.1 mg/mL G418 and was designated MOLM-13.luc.c4. The lentiviral Luc2 expression plasmid was constructed by incorporating Luc2 gene (Promega) in to pLOC lentiviral plasmid backbone (Thermo Fisher Scientific). Luc2 lentiviral particles were prepared by using Trans-Lentiviral Packaging System (Thermo Fisher Scientific) as recommended.
MOLM-13.luc.c4 was maintained with RPMI 1640 with L-glutamine (2 mM) media (GIBCO/Invitrogen, Carlsbad, CA) supplemented with 10% heat-inactivated Fetal Bovine Serum (HI-FBS; GIBCO/Invitrogen, Carlsbad, CA), and 1% 100 mM sodium pyruvate. Freshly dissociated MOLM13-Luc.c4 cells (1×106 or 5×106) suspended in Phosphate Buffered Saline (PBS) were then intravenously inoculated via the caudal tail vein into female SCID-beige mice.
It was then filtered thru a 0.22 micron filter into a septum sealed vial for intravenous administration. […] Stock cytarabine (Ara-C injection, 100 mg/ml) was diluted in sterile 0.9% sodium chloride to 44 mg/ml according to manufacturer's instructions and dosed at 200 mg/kg iv twice weekly.
Treatment duration was 3 weeks.
(§2) For increased life span (ILS) assessment, animal body weights were measured two to three times per week, and animals were monitored daily for any clinical signs of toxicity or excessive tumor burden (i.e. hind limb paralysis or morbidity). In addition, progression of disease was monitored by in vivo bioluminescent imaging (BLI) using IVIS® Spectrum system. For each BLI session, mice received 100 mg/kg D-luciferin (Caliper Life Sciences/Perkin-Elmer) via ip injections and were imaged at 20 min post luciferin injection at either a 5 s or a 10 s exposure time. Images were captured by the IVIS® Spectrum system and data were collected and analyzed with Living Image 4.2.0 software (Caliper Life Sciences, Hopkinton, MA). Total photon fluxes (ph/s) representing luciferase activity within each fixed region of interest (ROI) covering whole tumors of individual mice were determined. The actual images of mice are not disclosed herein.
Quantification of bioluminescence allowed for direct longitudinal comparison of tumor burden between treatment groups prior to surrogate death end points being reached. Tumor burden was graphically represented as the mean BLI photon flux+standard error of the mean (SEM), and median survival was determined utilizing Kaplan Meier survival analysis. Statistical analysis of comparisons between groups was analyzed by two-way ANOVA, and post-hoc Bonferroni test (GraphPad Prism, version 4.3). Differences between groups were considered to be significant when the probability value (p) was ≤0.05.

[2] = Ara-C 200 mg/kg 2×/week iv; 10/group
Description: as §1, with “Cages, bedding and water bottles were autoclaved before use and changed weekly. All animal experiments were conducted in accordance with the Guide for the Care and Use of Laboratory Animals, local regulations, and protocols approved by the Roche Animal Care and Use Committee in an AAALAC accredited facility.” left out
as §2, with “For each BLI session, mice received 100 mg/kg D-luciferin (Caliper Life Sciences/Perkin-Elmer) via ip injections and were imaged at 20 min post luciferin injection at either a 5 s or a 10 s exposure time.” left out, “The actual images of mice are not disclosed herein.” left out

Compound | % ILS vs. Vehicle control ([1]; Cpd I-B 437 mg/kg q7d iv) [%] | Median survival ([1]; Cpd I-B 437 mg/kg q7d iv, 5 million cells, treatment from day 3) [days] | % ILS vs. Vehicle control ([1]; Cpd I-B 437 mg/kg q7d iv, listed as Cpd I-B) | tumor burden by BLI photon counts compared to Vehicle-treated control (FIG. 1) ([1]; 5 million cells) | Mortality [2] | % ILS vs. Vehicle control ([1]; Ara-C 200 mg/kg 2×/wk iv) [%] | Median survival ([1]; Ara-C 200 mg/kg 2×/wk iv) [days] | antitumor activity as assessed by tumor burden (BLI) or ILS [1] | antitumor activity as assessed by tumor burden (BLI) or ILS ([1]; listed as Cytarabine (Ara-C)) | % ILS vs. Vehicle control ([1]; Cpd (A) 80 mg/kg qd × 5 po) | Median survival ([1]; Cpd (A) 80 mg/kg qd × 5 po) [days] | % ILS vs. Vehicle control ([1]; Cpd (A) 100 mg/kg q7d po) | Median survival ([1]; Cpd (A) 100 mg/kg q7d po) [days]
4-{[(2R,3S,4R,5S)-3-(3-Chloro-2-fluoro-phenyl)-4-(4-chloro-2-fluoro-phenyl)-4-cyano-5-(2,2-dimethyl-propyl)-pyrrolidine-2-carbonyl]-amino}-3-methoxy-benzoic acid 1-mPEG-carbonyloxy-ethyl ester (mPEG, average MW, 2200) [compound I-B] | 37 | 28 | *37% | significantly reduced photon counts |  |  |  |  |  |  |  |  | 
Nc1ccn([C@@H]2O[C@H](CO)[C@@H](O)[C@@H]2O)c(=O)n1 [Ara-C, cytarabine, reference compound] |  |  |  | no difference | 0 | 0 | 20 | lack of monotherapy activity | lack of antitumor activity |  |  |  | 
COc1cc(C(=O)O)ccc1NC(=O)[C@@H]1N[C@@H](CC(C)(C)C)[C@](C#N)(c2ccc(Cl)cc2F)[C@H]1c1cccc(Cl)c1F [compound (A), 4-{[(2R,3S,4R,5S)-4-(4-Chloro-2-fluoro-phenyl)-3-(3-chloro-2-fluoro-phenyl)-4-cyano-5-(2,2-dimethyl-propyl)-pyrrolidine-2-carbonyl]-amino}-3-methoxy-benzoic acid] |  |  |  |  |  |  |  |  |  | *37% | 28 | *22% | 25
